Laboratory results from patent publication US12083227B2, “Solid pharmaceutical formulations for treating endometriosis, uterine fibroids, polycystic ovary syndrome or adenomyosis” (priority 2017, dated 2024).

Experiments:
[1] = drug interaction studies: co-administered drug in the presence of elagolix
Procedure: Drug interaction studies were performed with elagolix and other drugs that are likely to be co-administered and with drugs commonly used as probes for pharmacokinetic interactions.

[2] = gel formation and pH of elagolix sodium solution; format: physicochemical
Procedure: 1.23 gram of elagolix sodium was added to 2 mL purified water in a test tube. […] To facilitate continued dissolution, the solution was stirred and the gel was dispersed continuously using a spatula. The solution pH was measured with undissolved solid present using a calibrated pH meter.

[3] = Ethinyl estradiol 35 mcg and triphasic norgestimate 0.18/0.215/0.25 mg once daily, elagolix 150 mg once daily, N 21
[4] = 0.5 mg single dose, elagolix 200 mg twice daily × 10 days, N 11
[5] = 2 mg single dose, elagolix 150 mg once daily × 13 days, N 11
[6] = 2 mg single dose, elagolix 300 mg twice daily × 11 days, N 20
[7] = 0.35 mg once daily × 112 days, elagolix 150 mg once daily × 56 days, N 32
[8] = 20 mg once daily, elagolix 300 mg twice daily × 7 days, N 10

SMILES: C#C[C@]1(O)CC[C@H]2[C@@H]3CCC4=CC(=NO)CC[C@@H]4[C@H]3CC[C@@]21CC (mixture of isomers) [Norelgestromin]
- AUC Ratio (with elagolix vs. medication alone) [1, 3]: 0.85
- Cmax Ratio (with elagolix vs. medication alone) [1, 3]: 0.87

SMILES: C#CC1(O)CC[C@H]2[C@@H]3CCC4=CC(=O)CC[C@@H]4[C@H]3CC[C@@]21CC (mixture of isomers) [Norgestrel]
- AUC Ratio (with elagolix vs. medication alone) [1, 3]: 0.92
- Cmax Ratio (with elagolix vs. medication alone) [1, 3]: 0.89

SMILES: C[C@H]1O[C@@H](O[C@H]2[C@@H](O)C[C@H](O[C@H]3[C@@H](O)C[C@H](O[C@H]4CC[C@@]5(C)[C@H](CC[C@@H]6[C@@H]5C[C@@H](O)[C@]5(C)[C@@H](C7=CC(=O)OC7)CC[C@]65O)C4)O[C@@H]3C)O[C@@H]2C)C[C@H](O)[C@@H]1O [Digoxin]
- AUC Ratio (with elagolix vs. medication alone) [1, 4]: 1.26
- Cmax Ratio (with elagolix vs. medication alone) [1, 4]: 1.71

SMILES: C#C[C@]1(O)CC[C@H]2[C@@H]3CCc4cc(O)ccc4[C@H]3CC[C@@]21C [Ethinyl Estradiol]
- AUC Ratio (with elagolix vs. medication alone) [1, 3]: 1.30
- Cmax Ratio (with elagolix vs. medication alone) [1, 3]: 1.15

SMILES: Cc1ncc2n1-c1ccc(Cl)cc1C(c1ccccc1F)=NC2 [Midazolam]
- AUC Ratio (with elagolix vs. medication alone) [1, 5]: 0.65
- Cmax Ratio (with elagolix vs. medication alone) [1, 5]: 0.81
- AUC Ratio (with elagolix vs. medication alone) [1, 6]: 0.46
- Cmax Ratio (with elagolix vs. medication alone) [1, 6]: 0.56

SMILES: C#C[C@]1(O)CC[C@H]2[C@@H]3CCC4=CC(=O)CC[C@@H]4[C@H]3CC[C@@]21C [Norethindrone]
- AUC Ratio (with elagolix vs. medication alone) [1, 7]: 0.88
- Cmax Ratio (with elagolix vs. medication alone) [1, 7]: 0.95

SMILES: CC(C)c1nc(N(C)S(C)(=O)=O)nc(-c2ccc(F)cc2)c1/C=C/[C@@H](O)C[C@@H](O)CC(=O)O [Rosuvastatin]
- AUC Ratio (with elagolix vs. medication alone) [1, 8]: 0.60
- Cmax Ratio (with elagolix vs. medication alone) [1, 8]: 0.99

SMILES: COc1cccc(-c2c(C)n(Cc3c(F)cccc3C(F)(F)F)c(=O)n(C[C@H](NCCCC(=O)[O-])c3ccccc3)c2=O)c1F.[Na+] [elagolix sodium, sodium 4-((R)-2-[5-(2-fluoro-3-methoxy-phenyl)-3-(2-fluoro-6-trifluoromethyl-benzyl)-4-methyl-2,6-dioxo-3,6-dihydro-2H-pyrimidin-1-yl]-1-phenyl-ethylamino)butanoate]
- gel formation during dissolution ([2]; 1.23 gram added to 2 mL purified water): started to form gel
- pH value of the solution ([2]; 1.23 gram in 2 mL purified water, undissolved solid present, 20° C.): 9.80
